Experimental data taken from patent US20260217767A1, “NOVEL A4B7 THIOETHER PEPTIDE DIMER ANTAGONISTS” (Protagonist Therapeutics, Inc., priority 2014, published 2026).
Where a SMILES comes first, the peptide text is derived from it.

Biological target: T1, rh integrin α4β7 (Homo sapiens, UniProt P13612+P26010)
T1 construct: purchased R&D Systems 5397-A30
T1 sequence (P13612 34-977 limits assumed): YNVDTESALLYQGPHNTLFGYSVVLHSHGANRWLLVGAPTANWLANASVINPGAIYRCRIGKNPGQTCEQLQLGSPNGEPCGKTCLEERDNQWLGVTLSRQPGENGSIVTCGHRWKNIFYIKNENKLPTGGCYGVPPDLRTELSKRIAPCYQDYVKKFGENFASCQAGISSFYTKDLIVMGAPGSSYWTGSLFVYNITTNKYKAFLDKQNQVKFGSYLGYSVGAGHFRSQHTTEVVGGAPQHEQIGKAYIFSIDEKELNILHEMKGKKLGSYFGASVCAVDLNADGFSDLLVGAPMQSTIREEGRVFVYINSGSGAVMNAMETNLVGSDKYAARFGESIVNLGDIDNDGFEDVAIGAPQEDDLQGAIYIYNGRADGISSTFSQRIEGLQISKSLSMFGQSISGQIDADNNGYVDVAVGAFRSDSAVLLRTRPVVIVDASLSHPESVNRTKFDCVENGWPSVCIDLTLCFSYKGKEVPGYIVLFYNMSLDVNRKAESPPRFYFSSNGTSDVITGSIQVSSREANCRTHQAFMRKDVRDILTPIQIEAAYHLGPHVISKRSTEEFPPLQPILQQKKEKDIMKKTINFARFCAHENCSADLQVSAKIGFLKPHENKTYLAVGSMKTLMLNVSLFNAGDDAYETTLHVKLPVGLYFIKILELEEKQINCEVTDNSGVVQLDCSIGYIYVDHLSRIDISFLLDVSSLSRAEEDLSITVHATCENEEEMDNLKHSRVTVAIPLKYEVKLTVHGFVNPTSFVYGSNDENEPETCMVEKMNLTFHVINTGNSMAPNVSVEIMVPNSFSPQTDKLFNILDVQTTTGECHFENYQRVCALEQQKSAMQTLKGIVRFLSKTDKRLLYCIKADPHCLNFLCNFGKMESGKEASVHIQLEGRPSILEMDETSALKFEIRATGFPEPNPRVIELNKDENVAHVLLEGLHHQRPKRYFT
T1 sequence (P26010 20-723 limits assumed): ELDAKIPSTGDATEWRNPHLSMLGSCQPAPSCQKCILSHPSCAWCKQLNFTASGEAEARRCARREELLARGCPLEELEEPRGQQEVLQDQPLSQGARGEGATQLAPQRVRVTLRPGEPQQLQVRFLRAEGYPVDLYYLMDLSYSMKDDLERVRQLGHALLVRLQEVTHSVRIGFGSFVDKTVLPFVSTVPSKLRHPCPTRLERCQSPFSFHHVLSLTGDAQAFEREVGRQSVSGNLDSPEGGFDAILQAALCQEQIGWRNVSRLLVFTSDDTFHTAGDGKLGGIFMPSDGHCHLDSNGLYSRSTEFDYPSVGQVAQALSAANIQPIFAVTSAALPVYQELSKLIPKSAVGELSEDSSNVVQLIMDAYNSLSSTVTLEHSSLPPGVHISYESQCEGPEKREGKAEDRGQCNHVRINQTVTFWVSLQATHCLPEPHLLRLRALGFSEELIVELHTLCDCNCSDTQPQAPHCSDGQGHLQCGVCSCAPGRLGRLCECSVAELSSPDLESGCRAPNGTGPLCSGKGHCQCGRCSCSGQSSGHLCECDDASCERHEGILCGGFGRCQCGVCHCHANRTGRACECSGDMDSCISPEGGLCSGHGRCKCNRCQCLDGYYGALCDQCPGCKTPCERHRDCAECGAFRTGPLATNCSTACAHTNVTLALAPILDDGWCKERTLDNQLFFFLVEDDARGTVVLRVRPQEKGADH
Test: α4β7-MAdCAM Competition ELISA
Type: binding
Conditions: thioether monomer peptides, Table 6; read-out: ELISA A4B7
Procedure, shortened: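 Recombinant human α4β7 captured on nickel-coated plates, then incubated 1 h at room temperature with serially diluted peptides (final top 10 μM) and 10 nM final MAdCAM-1 in Tris pH 7.6 buffer with 1 mM MnCl2 or MgCl2. Bound MAdCAM-1 detected with anti-human IgG1-HRP and TMB, absorbance at 450 nm.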

CC(C)C[C@@H]1NC(=O)[C@H]([C@@H](C)O)NC(=O)[C@H](CC(=O)O)NC(=O)[C@H](CO)NC(=O)[C@H](CCCNC(=N)N)N(C)C(=O)c2ccccc2CSC(C)(C)[C@@H](C(=O)N[C@@H](Cc2c[nH]c3ccccc23)C(=O)N[C@H](CCC(=O)O)C(=O)N[C@H](Cc2ccc(O)cc2)C(N)=O)NC1=O [compound 110] (HELM PEPTIDE1{[meR].S.D.T.L.[Pen].W.[dE].[dY].[am]}|CHEM1{[O=C(c1ccccc1C[*:2])[*:1]]}$PEPTIDE1,CHEM1,1:R1-1:R1|PEPTIDE1,CHEM1,6:R3-1:R2$$$V2.0)
IC50: < 25 nM
